The text below walks through data of patent US20260008775A1, “AZOLE MODULATORS OF CHOLESTEROL BIOSYNTHESIS AND THEIR USE FOR PROMOTING REMYELINATION” (GENENTECH, INC., priority 2022, published 2026).

For test [1], the target named is human emopamil binding protein and human 7-dehydrocholesterol reductase (hEBP-DHCR7) (Homo sapiens (Human), UniProt Q15125). Briefly: hEBP-DHCR7 radioligand binding assay (filter binding, membranes of co-expressing HEK293 cells). The note with it: competition with [3H] radioligand, 8 doses 0.06 to 5000 nM, Ki calculated from IC50. A digest of the protocol: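 Compound, either single dose 1 μM or eight 5-fold dilutions from 0.06 to 5000 nM, competed with a [3H]-labelled ligand added at 25 nM for binding to co-expressing HEK293 membranes. IC50 came from nonlinear regression, with full block and DMSO as controls, then Cheng–Prusoff conversion to Ki.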

The subject of test [2] is zymostenol accumulation (EBP) in EpiSC-derived OPCs. Nature of the test: GC/MS-based sterol profiling, zymostenol accumulation in EpiSC-derived OPCs. The format is cell-based, mouse. The following applies: Mus musculus, 24 h, EpiSC-derived OPCs, 24 hr, 8 doses from 0.15 nM to 333 nM; read-out: Mouse Zymostenol GCMS EC50. A digest of the protocol:
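Zymostenol level is expressed relative to that after 24 h with 100 nM positive-control reference, measured by full-scan GC/MS (m/z 458) with cholesterol-d7 internal standard after BSTFA derivatisation. Cells were EpiSC-derived OPCs, 100,000/well in N2B27 without growth factors, treated 24 h, from two or more independent platings.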

The test system of a further test is EpiSC-derived OPCs. Briefly: In vitro phenotypic screening of OPCs, MBP high-content imaging (percentage of oligodendrocytes). The format is cell-based, mouse. The note with it: Mus musculus, 72 h, 3 days, MBP stain, dose-response 0.5 nM to 1000 nM; read-out: OPC EC50. A digest of the protocol:
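EC50 was fitted by Hill equation to the MBP-positive oligodendrocyte percentage from imaging of fixed, MBP- and DAPI-stained cells. Treatment lasted 3 days at 37 °C, final doses 0.5–1000 nM over 8 points, in growth factor-free N2B27. Cells were EpiSC-derived OPCs, tested in at least two independent platings.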

Chain of human emopamil binding protein and human 7-dehydrocholesterol reductase (hEBP-DHCR7) (Q15125 whole entry): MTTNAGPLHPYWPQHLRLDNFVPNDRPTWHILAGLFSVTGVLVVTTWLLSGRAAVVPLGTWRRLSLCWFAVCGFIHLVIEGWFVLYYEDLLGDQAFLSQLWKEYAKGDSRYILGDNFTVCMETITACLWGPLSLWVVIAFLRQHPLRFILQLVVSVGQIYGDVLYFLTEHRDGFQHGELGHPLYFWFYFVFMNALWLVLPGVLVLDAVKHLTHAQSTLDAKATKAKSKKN

With `COCCN1CCN([C@H]2CC[C@@H](c3cc(-c4ccc(C(F)(F)F)nc4)nn3C(C)C)C2)CC1` (single isomer, unassigned) [91*], the Ki in test [1] is 12.8 nM. Further, the EC50 was 11.3 nM in test [2] and 67.6 nM with EpiSC-derived OPCs.
On to `CC(C)n1nc(-c2ccc(C(F)(F)F)c(F)c2)nc1[C@H]1CC[C@@H](N2CCOCC2)C1` (single isomer, unassigned) [Compound 111*], for which the Ki in test [1] was 45 nM. Moreover, the EC50 in test [2] worked out at 1.64 nM; with EpiSC-derived OPCs, 6.15 nM.
The matching figures for `CC(C)n1nc(-c2cncc(C(F)(F)F)c2)cc1[C@H]1[C@@H]2C[C@@H](N3CCO[C@@H](C)C3)C[C@@H]21` (single isomer, unassigned) [39*]: 771 nM, 255 nM and 523 nM.
Take `CC(C)n1nc(-c2cncc(C(F)(F)F)c2)nc1[C@H]1[C@@H]2C[C@@H](N3CCCOCC3)C[C@@H]21` [Compound 52, 4-((1R,3s,5S,6r)-6-(1-Isopropyl-3-(5-(trifluoromethyl)pyridin-3-yl)-1H-1,2,4-triazol-5-yl)bicyclo[3.1.0]hexan-3-yl)-1,4-oxazepane]: the Ki in test [1] was 18.1 nM. Moreover, the concentration for a half-maximal effect (EC50) in test [2] worked out at 3.1 nM; in the test on EpiSC-derived OPCs, 6.29 nM.
For `CC(C)n1nc(-c2ccc(C(F)(F)F)c(F)c2)nc1[C@@H]1CC[C@H](N2CCOCC2)C1` (single isomer, unassigned) [Compound 113*] the same measures were 9.73 nM, 1.85 nM and 4.81 nM.
The matching figures for `CC(C)n1nc(-c2cccc(C(F)(F)F)n2)cc1[C@H]1[C@@H]2C[C@H](N3CCCOCC3)C[C@@H]21` [Compound 50, 4-((1R,3r,5S,6r)-6-(1-Isopropyl-3-(6-(trifluoromethyl)pyridin-2-yl)-1H-pyrazol-5-yl)bicyclo[3.1.0]hexan-3-yl)-1,4-oxazepane]: 21 nM, 1.62 nM and 7.72 nM.
The matching figures for `CC(C)n1nc(-c2cnc(C(F)(F)F)nc2)cc1[C@H]1[C@@H]2C[C@H](N3CCOC[C@H]3C)C[C@@H]21` [Compound 97, (R)-4-((1R,3r,5S,6R)-6-(1-Isopropyl-3-(2-(trifluoromethyl)pyrimidin-5-yl)-1H-pyrazol-5-yl)bicyclo[3.1.0]hexan-3-yl)-3-methylmorpholine]: 15.1 nM, 3.87 nM and 11.4 nM.
With `CC(C)n1nc(-c2cccc(C(F)(F)F)n2)cc1[C@H]1[C@@H]2C[C@@H](N3CCOCC3)C[C@@H]21` [Compound 31, 4-((1R,3s,5S,6r)-6-(1-Isopropyl-3-(6-(trifluoromethyl)pyridin-2-yl)-1H-pyrazol-5-yl)bicyclo[3.1.0]hexan-3-yl)morpholine], the Ki in test [1] was 100 nM. For the same molecule, the EC50 was found to be 241 nM in test [2] and 643 nM with EpiSC-derived OPCs.
For `CC(C)n1nc(-c2ccc(C(F)(F)F)nc2)nc1[C@H]1CC[C@H](N2CCCOCC2)C1` [Compound 5, 4-((1S,3S)-3-(1-isopropyl-3-(6-(trifluoromethyl)pyridin-3-yl)-1H-1,2,4-triazol-5-yl)cyclopentyl)-1,4-oxazepane] the same measures were 52.7 nM, 44.2 nM and 196 nM.
The matching figures for `FC(F)(F)c1cccc(-c2nc([C@@H]3CC[C@@H](N4CCCOCC4)C3)n(C3CC3)n2)n1` (single isomer, unassigned) [11*]: 134 nM, 19.7 nM and 108 nM.
In the case of `FC(F)(F)c1cccc(-c2nc([C@@H]3CC[C@H](N4CCCOCC4)C3)n(C3CC3)n2)n1` (single isomer, unassigned) [12*], in test [1], the Ki is 120 nM. For the same molecule, the EC50 was 64 nM in test [2] and 63.8 nM with EpiSC-derived OPCs.
On to `CC(C)n1nc(-c2ccc(C(F)(F)F)nc2)nc1[C@@H]1CC[C@H](N2CCCOCC2)C1` [Compound 4, 4-((1S,3R)-3-(1-isopropyl-3-(6-(trifluoromethyl)pyridin-3-yl)-1H-1,2,4-triazol-5-yl)cyclopentyl)-1,4-oxazepane], for which the Ki in test [1] is 8.28 nM. For the same molecule, the EC50 in test [2] was found to be 12.3 nM; in the test with EpiSC-derived OPCs, 38.7 nM.
The matching figures for `CC(C)n1nc(-c2cccc(OC(F)(F)F)c2)cc1[C@H]1[C@@H]2C[C@@H](N3CCCOCC3)C[C@@H]21` [Compound 190*, 4-((1R,3s,5S,6r)-6-(1-isopropyl-3-(3-(trifluoromethoxy)phenyl)-1H-pyrazol-5-yl)bicyclo[3.1.0]hexan-3-yl)-1,4-oxazepane]: 9.63 nM, 10.9 nM and 25.1 nM.
For `CC(C)n1nc(-c2cncc(F)c2)cc1[C@H]1[C@@H]2C[C@@H](N3CCCOCC3)C[C@@H]21` [Compound 188*, 4-((1R,3s,5S,6r)-6-(3-(5-fluoropyridin-3-yl)-1-isopropyl-1H-pyrazol-5-yl)bicyclo[3.1.0]hexan-3-yl)-1,4-oxazepane] the same measures were 169 nM, 122 nM and 549 nM.
For `CC(C)n1nc(-c2cccc(C#N)c2)cc1[C@H]1[C@@H]2C[C@H](N3CCCOCC3)C[C@@H]21` [Compound 191*, 3-(5-((1R,3r,5S,6r)-3-(1,4-Oxazepan-4-yl)bicyclo[3.1.0]hexan-6-yl)-1-isopropyl-1H-pyrazol-3-yl)benzonitrile] the same measures were 8.04 nM, 2.66 nM and 8.52 nM.
As to `CC(C)n1nc(-c2cncc(C(F)(F)F)c2)cc1[C@H]1[C@@H]2C[C@H](N3C[C@@H]4C[C@H]3CO4)C[C@@H]21` (single isomer, unassigned) [38*], the inhibition constant (Ki) in test [1] is 47.6 nM. The figures for the EC50 (in test [2]; in the test on EpiSC-derived OPCs) were 9.32 nM and 71 nM, respectively.
The matching figures for `CC(C)n1nc(-c2cccc(C(F)(F)F)c2)cc1[C@H]1[C@@H]2C[C@H](N3CCOCC3)C[C@@H]21` [Compound 170, 4-((1R,3r,5S,6r)-6-(1-Isopropyl-3-(3-(trifluoromethyl)phenyl)-1H-pyrazol-5-yl)bicyclo[3.1.0]hexan-3-yl)morpholine]: 6.87 nM, 2.98 nM and 5.33 nM.
With `CC(C)n1nc(-c2cnc(C(F)(F)F)nc2)nc1[C@H]1[C@@H]2C[C@H](N3CCOC[C@H]3C)C[C@@H]21` [Compound 204, (R)-4-((1R,3r,5S,6r)-6-(1-isopropyl-3-(2-(trifluoromethyl)pyrimidin-5-yl)-1H-1,2,4-triazol-5-yl)bicyclo[3.1.0]hexan-3-yl)-3-methylmorpholine], the Ki in test [1] is 16 nM. Besides, the EC50 in test [2] is 2.07 nM; in the test on EpiSC-derived OPCs it was 6 nM.
The matching figures for `CC(C)n1nc(-c2cncc(Cl)c2)cc1[C@H]1[C@@H]2C[C@H](N3CCCOCC3)C[C@@H]21` [Compound 178*, 4-((1R,3r,5S,6r)-6-(3-(5-chloropyridin-3-yl)-1-isopropyl-1H-pyrazol-5-yl)bicyclo[3.1.0]hexan-3-yl)-1,4-oxazepane]: 35.8 nM, 65.6 nM and 555 nM.
For `FC(F)(F)c1cccc(-c2nc([C@H]3CC[C@H](N4CCCOCC4)C3)n(C3CC3)n2)n1` (single isomer, unassigned) [9*] the same measures were 113 nM, 21.4 nM and 73.4 nM.

One may read the Ki as a dissociation constant, usually derived from enzyme kinetics or from competition with a known ligand. Usually EC50 stands for the concentration giving half of the maximal effect.
